# System: D. immitis microfilariae
# Test: Dog heart worm microfilariae motility assay
# Format: cell-based
# Conditions: Dirofilaria immitis, read-out: EC50 (motility inhibition)
structure (smiles),measurement,value
"O=C(NN1CCOc2ccccc21)c1cnc2c(-c3cc(F)cc(F)c3F)cccc2c1N1CCSCC1 [Example 5.10, N-(2,3-dihydro-1,4-benzoxazin-4-yl)-4-thiomorpholino-8-(2,3,5-trifluorophenyl)quinoline-3-carboxamide]",EC50,< 0.1 µg/mL

# Source: US20200385398A1, “NEW BICYCLIC DERIVATIVES” (Elanco Tiergesundheit AG, priority 2019, published 2020)
